Results on three molecules are retold here after publication PMC4976923, “Potent Allosteric Dengue Virus NS5 Polymerase Inhibitors: Mechanism of Action and Resistance Profiling” (PLoS Pathogens, 2016).

The EC50 is the concentration that produces a half-maximal response. In general, CC50 refers to the concentration giving 50% cytotoxicity.

Like-named read-outs stand apart in the source and are kept apart here.

The test system of data set [1] is DENV2-NGC Ren-LUC Replicon in A549. Nature of the data set: Stable A549 DENV2-NGC renilla luciferase replicon assay. The note with it: Dengue virus, 48 hr. In kind it is cell-based. The method, then: (§1) A549, BHK-21 and Huh7 cells bearing stable DENV2 sub-genomic replicon or transiently electroporated DENV2-NGC replicon or infectious virus cDNAs were seeded into 384-well microplate (3,000 cells per well). After over-night incubation at 37°C with 5% CO2, the cells were treated with 2-fold serially diluted compounds, starting from 20 or 50 μM. At 48 hr of post-incubation, renilla luciferase activities were measured with the ViviRen live-cell substrate (Promega, USA) according to the manufacturer’s protocol. CellTiter-Glo reagent (Promega, USA) was then added to determine cytotoxic effects of compounds. For the HCV replicon assay, Huh-7.5 cells harboring the HCV replicon were seeded into a 96-well microplate (20,000 cells per well). At 48 hr after compound treatment, cells were assayed for firefly luciferase activity by using a Bright-Glo luciferase assay (Promega, USA). NITD-008, a nucleoside inhibitor of DENV and HCV was added as a control.
1 containing 2 % FBS, 1mM L-glutamine and 1 % penicillin-streptom ycin and incubated over-
At 24 h post-seeding, cells were inf ected with DENV1-4 at
3 multiplicity of infection [MOI] of 0.3-1 (DENV1, strain MY97- 10245, MOI = 0.5; DENV2,
5 MY01-22713; MOI = 0.5) and treated immediatel y with 10- point, 3-fold serially diluted
6 compounds (at final 0.5% DMSO concent ration; 4). At 48 h post-infection , cells wer e fix ed
8 DENV envelope protein ) and DRAQ5 (for nucl ear DNA) . Quantifications of DENV
9 envelope protein were determined using the Opera high content imaging s ystem and anal ysis
10 software (Perkin Elmer, USA). Calculation of EC50 values were perfo rmed using Helios
11 software p ackage (Nov ar tis, Basel).
13 Compound testing in DENV2 and HCV sub -genomic replicon assays. A549, BHK -21 and
14 Huh7 DENV2 sub- geno mic replicon cells were seed ed at a d ensit y o f 3,000 cells per w ell
15 in a 384-well microplate. After incubation at 37 °C with 5 % CO2 overnight, the cells were […]
17 µM concentrations. At 48 hr of post-incubation, r enilla luciferas e activities were measured […]
A general note: Replicon systems follow genome replication, usually without infectious particles.

For another data set, the system named is DENV2 replicon cells. Put plainly: DENV2 replicon cells from HuH-7, BHK-21 and A549 backgrounds, range. In kind it is cell-based. The note with it: Dengue virus, range across cell backgrounds.
In data set [2] the test system is DENV2-NGC Ren-LUC Replicon in HuH-7. Nature of the data set: Stable HuH-7 DENV2-NGC renilla luciferase replicon assay. The note with it: read-out: HuH-7 DENV Replicon, DENV2, EC50. In kind it is cell-based.
Data set [3] in a line: in vitro. In kind it is cell-based. The method, then: as §1
A further data set concerns DENV4 FL NS5. Put plainly: Thermo-denaturation assay, recombinant FL NS5. In kind it is binding. The note with it: for Tm change compared to DMSO control, DENV4 FL NS5 WT: 50 µM compound (Fig 7 in S1 Text); for Protein melting temperature, Tm, DENV4 FL NS5 WT: 50 µM compound, DMSO 37.5 (Fig 7 in S1 Text); for Protein melting temperature Tm with compound, FL NS5: +50 μM compound, DMSO control 42.5. The method, then: Site-directed alanine mutations of DENV4 FL NS5 cDNA were performed using pET28-D4-MY01-22713 NS5FL [23] as a template, according to the manufacturer’s protocol (Stratagene, USA). Protein expressions of DENV1-4 FL NS5 and their stability analyses by thermo-fluorescence were performed as described previously. DENV de novo initiation and elongation FAPA assays were earlier described. […]
6 Fi g .5. Ef fects of N -pocket compounds on DENV pol ymerase thermo-stability. Melting
7 temperatur e (Tm) w as ass essed b y thermo-d enatur ation in presence of the S YPRO Oran ge
8 dye as described in Materials and Methods. (A-F) Representative meltin g curves of DEN V4
10 inhibitors or 5 % DMSO control. […]
16 controls treated with DMSO.

Data set [4] deals with Control DENV2-NGC EGFP-replicon cells passaged in DMSO. Nature of the data set: Control DENV2-NGC EGFP-replicon cells passaged in DMSO. The class given is cell-based. The note with it: Dengue virus, DENV2, 48 h; 2 days.
Another data set concerns DENV3 strain MY05-34640. The note with it: A549; 48 hr; read-out: DENV3 HCI, EC50 (converted); cited from earlier work.
Another data set concerns DENV2-NGC virus E802D. The class given is cell-based. The note with it: A549, MOI = 0.2; 48 hr; plaque assay.
Data set [5] concerns DENV2-NGC virus Wild Type. Nature of the data set: WT DENV2-NGC virus in A549 cells, plaque assay. The note with it: Dengue virus, DENV2, A549, 48 h, read-out: EC50, DENV2-NGC Virus, Wild Type.
Protocol: 8 Plaque assay. Virus stock was produced b y harvesting the supernatant of DENV2 full -length
9 RNA- transf ected BHK -21 cells at 24, 48, 72, 96, and 120 hours post transfection. Virus titer
10 and morphology were determined by st andard plaque assa y. Briefl y, a seri es of 10 -fold
11 dilutions was prepared by first diluting 50 µl virus stock with 450 µl RPMI 1640 m edia
12 containing 2 % FBS to obtain 10-1 dilution and then further diluted until a final 10 -6 dilution
13 was achieved. Confluent BHK-21 cells (1 × 10^5 cells per well, plated 2 da ys in advance)
14 grown in 24-well plate was added with 200 µl of each dilution per well. Duplicates were
15 prepared for each time point and dilution factor. The infection was allowed to proceed at
16 30°C for 1 hour, followed by removing the m edia and adding 500 µl 0.8% methyl-cellulose
17 overla y (containing RPM I, 2 % FBS, 1 % P/S, 0.05 % NaHCO 3, 25 mM Na Hepes, and
18 0.5 % DMSO) into each well. The plates were incubated for 5 da ys at 37 °C in 5 % CO 2
19 before fixing in 3.7 % formaldehyde and staining with 1 % cr ystal violet. The viral titer was
20 calculated as plaque- forming unit (PFU) per ml.
Data set [6] can be described thus: in vitro. The class given is cell-based. The note with it: human; 4–5 days.
Where [7] appears, read: Dengue virus, DENV2, Huh-7, 48 h.
Where [8] appears, read: human, HuH-7 (DENV2 replicon cells), 48 hr, ATP levels.
Setting [9] is: human, 2 days, read-out: CC50, A549.
The mark [10] stands for this setting: hamster, 2 days, read-out: CC50, BHK-21.

As to `COc1cccc(S(=O)(=O)NC(=O)c2cc(-c3ccc(C#CCO)s3)c(OC)cc2C)c1` [Compound 26i], the EC50 in data set [1] is 15.4 µM; in the data set on DENV2 replicon cells it was 12 to 15 µM; in [2] (setting [7]) it was 12.1 µM. The CC50 in “in vitro [3]” (setting [8]) and in “in vitro [3]” (setting [9]) was more than 50 µM each time.

Take `COc1cccc(S(=O)(=O)NC(=O)c2cc(-c3ccc(C#CCO)s3)c(OC)cc2OC)c1` [Compound 27]: the “Tm change compared to DMSO control, DENV4 FL NS5 WT” value in the data set on DENV4 FL NS5 came to 1 °C. Also, the “Protein melting temperature, Tm, DENV4 FL NS5 WT” value in the data set with DENV4 FL NS5 came to 38.5 °C. Moreover, the “Protein melting temperature Tm with compound, FL NS5” value with DENV4 FL NS5 is 46.5 °C. Further, the half-maximal effective concentration (EC50) in data set [1] is 2.3 µM; in data set [4] it was 2.46 µM; in the data set with DENV2 replicon cells, 1 to 5 µM; in data set [2] (setting [7]) it was 3.9 ± 0.62 µM; in the data set on DENV3 strain MY05-34640, 1.8 ± 0.5 µM; in the data set with DENV2-NGC virus E802D, 1.42 µM. In addition, in [5], the EC50 is 0.87 µM. For the same molecule, the CC50 is more than 50 µM in the data set “in vitro [3]” (setting [10]), more than 100 µM in the data set “in vitro [3]” (setting [8]), more than 50 µM in the data set “in vitro [3]” (setting [9]) and more than 50 µM in “in vitro [6]”.

`COc1cc(OC)c(-c2ccc(C#CCO)s2)cc1C(=O)NS(=O)(=O)c1cccc2cccnc12` [Compound 29]: in the data set with DENV4 FL NS5, the “Tm change compared to DMSO control, DENV4 FL NS5 WT” value came out at 3 °C. Also, the “Protein melting temperature, Tm, DENV4 FL NS5 WT” value in the data set on DENV4 FL NS5 amounted to 40.5 °C. In addition, the “Protein melting temperature Tm with compound, FL NS5” value in the data set on DENV4 FL NS5 was determined as 51.5 °C. In addition, the EC50 is 2.8 µM in data set [1]; 3.55 µM in data set [4]; 1 to 5 µM in the data set with DENV2 replicon cells; 1.9 ± 0.2 µM in [2] (48 hr); approximately 2 µM in data set [2] (setting [7]); 3.8 µM with DENV3 strain MY05-34640. Moreover, the EC50 was 5.8 µM with DENV2-NGC virus E802D and 1.11 µM in data set [5]. Besides, the 50% cytotoxic concentration (CC50) in the data set “in vitro [3]” (setting [10]), in “in vitro [3]” (setting [8]), in “in vitro [3]” (setting [9]) and in “in vitro [6]” was more than 50 µM each time.
